According to PMC8838521, “Antimicrobial, Cytotoxic and Mutagenic Activity of Gemini QAS Derivatives of 1,4:3,6-Dianhydro-L-iditol” (Molecules, 2022):
Counter-ions that a name gives are not always drawn. Like-named read-outs stand apart in the source and are kept apart here.

How the values were obtained:
[1] = test system: Candida albicans ATCC 10231; experiment: Antimicrobial activity, microdilution MIC, C. albicans; type: cell-based; settings: for MIC: Candida albicans, ATCC10231, 24 h
Experimental: (§1) The antimicrobial potential of the tested agents was evaluated against two reference strains of bacteria: Staphylococcus aureus ATCC 25923 and Escherichia coli K12, two reference strains of pathogenic yeasts, Candida albicans ATCC10231 and Candida glabrata DSMZ11226, as well as 20 strains of clinical isolates of S. aureus collected from patients with skin and soft tissue infections (n = 8) and strains derived from subclinical bovine mastitis milk samples (n = 12). Four of these strains, two isolated from human infections and two isolated from bovine mastitis, were classified as MRSA (Methicillin-resistant Staphylococcus aureus). All of them were mecA positive and their methicillin resistance was confirmed with the disc diffusion assay. The remaining 16 strains were MSSA (Methicillin-sensitive Staphylococcus aureus). The assays were performed using a serial, two-fold dilution method in 96-well microtiter plates under conditions recommended by the Clinical and Laboratory Standards Institute (CLSI, Pittsburgh, PA, USA). The aim of this procedure was the determination of the MIC parameter (Minimum Inhibitory Concentration)—the minimum concentration of a tested agent capable to inhibit the growth of a specified strain of microorganism. The agents were solubilized in deionized, sterile water to a final concentration of […]. Subsequently, solutions were mixed (1:1 (v/v)) with 2 × concentrated liquid medium, Mueller-Hinton Broth 2—cation adjusted (MHB2) for evaluation of antibacterial activity and RPMI in the case of evaluation of the antifungal activity. […] Subsequently, the solutions were mixed with MHB2 or RPMI medium to get the final concentration of 8.192 mg/mL (8192 µg/mL). In the next step, the serial, two-fold dilutions of the tested agents (over the range of concentrations from 8192 to 8 µg/mL for reference strains of bacteria and yeasts and from 512 to 1.0 µg/mL for clinical isolates of S. aureus) were prepared in 96-well microtitration plates in the final volume of 100 μL of the appropriate medium.
(§2) The pure cultures of yeast strains were grown on the Sabouraud Dextrose Agar (SDA) for 18–24 h at 37 °C. Suspensions of the microorganisms were prepared by taking one loop of pure culture into sterile water and adjusting optical density to 0.1 at 660 nm and further 50-fold dilution in RPMI 1640 medium resulting in cells concentration of approximate 2 × 10^4 CFU/mL. One hundred μL of that suspension was inoculated to the wells of the microtitration plate containing appropriate dilutions of the agents. The positive growth control of each strain (both bacteria and yeasts) was performed in the wells without the tested substances. The negative control containing only the media was included in each assay. Microtiter plates were incubated at 37 °C for 24 h. Following the incubation period, determination of the MIC values of the tested agents was carried out by measuring the absorbance at 531 nm using a Victor^3 microplate reader (Perkin Elmer, Inc., Waltham, MA, USA). The lowest concentration of the agent causing inhibition of growth equal to or higher than 90% (MIC90) of growth control was taken as the MIC value. Each test was repeated three times.

[2] = Solubility observed during assays; type: physicochemical; settings: observed during antimicrobial assays; DMSO used for solubilisation
[3] = test system: Salmonella typhimurium TA98 strain; settings: TA98, no metabolic activation
Experimental: A Salmonella mutagenicity test was performed with Salmonella typhimurium TA98 strain (Xenometrics AG, Allschwil, Switzerland) without metabolic activation, following the procedure by Mortelmans and Zeiger [52], with modifications reported Golunski et al. [53] […] Subsequently, the mixture was centrifuged, bacterial pellet washed with 0.75% NaCl and resuspended in 300 µL of 0.75% NaCl solution containing 0.1 µmol each of histidine and biotin, and it was then spread on a glucose minimal (GM) plate. […] All experiments were performed in triplicate. The anticancer drug doxorubicin at 90 ng/plate with known mutagenic effect towards S. typhimurium TA98 was used as a positive control.

[4] = test system: Staphylococcus aureus ATCC 25923; experiment: Antimicrobial activity, microdilution MIC, S. aureus reference strain; type: cell-based; settings: for MIC: Staphylococcus aureus, ATCC25923, 24 h
Experimental: as §1
(§3) The pure bacterial cultures of (both the reference and clinical strains) were grown on the Mueller-Hinton Agar (MHA) for 18–24 h at 37 °C. A small amount of the biomass of the culture of each strain of microorganisms was suspended in the sterile PBS (phosphate buffered saline, pH 7.4 at 25 °C, purchased from Sigma) solution to get an optical density OD600 = 0.13 (equal to the cells concentration approximately 1 × 10^8 CFU/mL). The obtained suspensions of the cells were next diluted 1:100 (v/v) in the MHB2 medium. One hundred µL of the cells’ suspension was finally loaded into the wells of plates prepared in advance, which contained 100 µL of two-fold dilutions of the tested agents (the final concentration of the bacterial cells in all wells was approximately 5 × 10^5 CFU/mL).
as §2, with “times. […]” for “times.”

[5] = test system: Escherichia coli K12; experiment: Antimicrobial activity, microdilution MIC, E. coli; type: cell-based; settings: for MIC: Escherichia coli, K12, 24 h
Experimental: as §1, §3
as §2, with “times. […]” for “times.”

[6] = test system: human keratinocytes (HaCaT cell line); experiment: Cytotoxicity, MTT assay; type: cell-based; settings: Homo sapiens, HaCaT, read-out: HaCaT IC50
Experimental: To assess the cytotoxicity of QAS (IC50), the MTT assay on 96-well polystyrene plates was performed for human keratinocytes (HaCaT, Elabscience Biotechnology Inc., Houston, Texas, USA). The assay utilizes colorimetric determination of the cell metabolic activity and the color intensity reflects the number of live cells that can be measured spectrophotometrically. The cell line was cultured in a Dulbecco’s modified Eagle Medium (Invitrogen) supplemented with 10% fetal bovine serum (Sigma Aldrich) (v/v), 100 units/mL of penicillin, 100 μg/mL of streptomycin, and 2 mM L-glutamine and was stored at 37 °C in a humidified 5% CO2 incubator. Briefly, a day after plating of 500 cells per well, a series of concentrations (0.5–200 μg/mL) of the test compounds was applied. DMSO was added to the control cells at a final concentration of 1.0% (v/v), which was related to the maximal concentration of the solvent compounds used in the experiment. After 24 h of incubation with the QAS at 37 °C (humidified 5% CO2 incubator), a medium containing 1 mg/mL of MTT (3-(4,5-dimethylthiazol-2-yl)-2,5-diphenyltetrazolium bromide) was added to the wells up to a final concentration of 0.5 mg/mL. Subsequently, the plates were incubated at 37 °C for 4 h. Then, the medium was removed by suction, and the formazan product was solubilized with DMSO. The background absorbance at 630 nm was subtracted from that at 570 nm for each well (Epoch, BioTek Instruments, Winooski, VT, USA). Six replicates were conducted for each concentration. All experiments were repeated at least twice and the resulting IC50 values were calculated with GraFit 7 software (v. 7.0, Erithacus, Berkley, CA, USA).

[7] = test system: Candida glabrata DSMZ 11226; experiment: Antimicrobial activity, microdilution MIC, C. glabrata; type: cell-based; settings: for MIC: Nakaseomyces glabratus, DSMZ11226, 24 h
Experimental: as §1, §2

[8] = read-out: MIC C. albicans ATCC 10231, MIC90, 24 h, RPMI
[9] = read-out: MIC S. aureus ATCC 25923, MIC90, 24 h, MHB2
[10] = read-out: MIC E. coli K12, MIC90, 24 h, MHB2
[11] = read-out: MIC C. glabrata DSMZ 11226, MIC90, 24 h, RPMI
[12] = MIC90, 24 h, RPMI, read-out: MIC C. albicans ATCC 10231
[13] = MIC90, 24 h, MHB2, read-out: MIC S. aureus ATCC 25923
[14] = MIC90, 24 h, MHB2, read-out: MIC E. coli K12
[15] = MIC90, 24 h, RPMI, read-out: MIC C. glabrata DSMZ 11226

SMILES	Number of Revertants ([3]; concentration 4 µg/plate)	Number of Revertants ([3]; concentration 20 µg/plate)	Number of Revertants ([3]; concentration 100 µg/plate)	Number of Revertants ([3]; concentration 500 µg/plate)	Number of Revertants ([3]; concentration 2000 µg/plate)	MIC S. aureus ATCC 25923 ([4]; MIC90, 24 h, MHB2) [µg/mL]	MIC E. coli K12 ([5]; MIC90, 24 h, MHB2) [µg/mL]	MIC C. glabrata DSMZ 11226 ([7]; MIC90, 24 h, RPMI) [µg/mL]	MIC [1, 12] [µg/mL]	MIC C. albicans ATCC 10231 ([1]; MIC90, 24 h, RPMI) [µg/mL]	MIC [4, 13] [µg/mL]	MIC [5, 14] [µg/mL]	IC50 ([6]; MTT, 24 h incubation) [µg/mL]	MIC [7, 15] [µg/mL]	further results
CCCCCC[N+](C)(C)C1COC2C1OCC2[N+](C)(C)CCCCCC [QAS 8, N,N’-(1,4:3,6-Dianhydro-2,5-dideoxy-L-iditol-2,5-diyl)-bis(N,N-dimethyl-N-hexylammonium) Ditrifluoromethanesulfonate]	14.7 ± 5.1	15.7 ± 1.5	11.0 ± 7.5	12.3 ± 3.5	12.7 ± 3.2	2048	>4096	2048							MIC [1, 8]: > 4000 µg/mL; Solubility in water [2]: lower solubility in water; MIC [4, 9]: > 4000 µg/mL; MIC [5, 10]: > 4000 µg/mL; IC50 ([6]; 24 h): > 100 µg/mL; MIC [7, 11]: > 4000 µg/mL
NC(=O)c1ccc[n+](C2COC3C2OCC3[n+]2cccc(C(N)=O)c2)c1 (as salt: methanesulfonate) [QAS 5, N,N’-(1,4:3,6-Dianhydro-2,5-dideoxy-L-iditol-2,5-diyl)-bis[(3-carboxamide)pyridinium] Ditrifluoromethanesulfonate]															melting point: 63.5 to 65.2 °C
NC(=O)c1ccc[n+](C2COC3C2OCC3[n+]2cccc(C(N)=O)c2)c1 [QAS 5, N,N’-(1,4:3,6-Dianhydro-2,5-dideoxy-L-iditol-2,5-diyl)-bis[(3-carboxamide)pyridinium] Ditrifluoromethanesulfonate]	14.3 ± 5.5	8.0 ± 3.5	12.0 ± 2.0	12.7 ± 2.5	11.0 ± 1.7	>4096	>4096	>4096	> 4000	>4096	> 4000	> 4000	> 100	> 4000	
c1cc[n+](C2COC3C2OCC3[n+]2ccccc2)cc1 (stereo not shown) [QAS 3]	7.3 ± 2.5	11.0 ± 1.0	10.6 ± 2.1	8.7 ± 1.5	7.3 ± 2.5	>4096	>4096	>4096	> 4000	>4096	> 4000	> 4000	> 100	> 4000	
Cn1cc[n+](C2COC3C2OCC3[n+]2ccn(C)c2)c1 [QAS 6, N,N’-(1,4:3,6-Dianhydro-2,5-dideoxy-L-iditol-2,5-diyl)-bis(N-methylimidazolium) Ditrifluoromethanesulfonate]	13.3 ± 3.2	10.0 ± 2.0	9.0 ± 3.6	16.0 ± 6.2	13.7 ± 2.9	>4096	>4096	>4096	> 4000	>4096	> 4000	> 4000	> 100	> 4000	
C[N+](C)(C)C1COC2C1OCC2[N+](C)(C)C (stereo not shown) [QAS 7]	11.0 ± 3.0	10.7 ± 4.9	11.3 ± 3.5	13.7 ± 1.5	11.3 ± 3.2	>4096	>4096	>4096		>4096					MIC [1, 8]: > 4000 µg/mL; MIC [4, 9]: > 4000 µg/mL; MIC [5, 10]: > 4000 µg/mL; IC50 ([6]; 24 h): > 100 µg/mL; MIC [7, 11]: > 4000 µg/mL
CN(C)c1cc[n+](C2COC3C2OCC3[n+]2ccc(N(C)C)cc2)cc1 (stereo not shown) [QAS 4]	8.3 ± 0.6	9.7 ± 1.5	10.0 ± 2.6	7.0 ± 3.5	6.0 ± 2.6	>4096	>4096	>4096	> 4000	>4096	> 4000	> 4000	> 100	> 4000	
